For the test, the target named is human TRPA1 (Homo sapiens (Human), UniProt O75762). Put plainly: FLIPR Tetra calcium influx assay, block of cinnamaldehyde-induced calcium influx in CHO cells expressing TRPA1 (human). Type of test: cell-based. The following applies: 20 min compound incubation, 75 uM cinnamaldehyde (~EC80), Hill coefficient fixed to 1.5, read-out: hTRPA1 AUC IC50. The method, then: IC50 Determinations of Exemplified Compounds.
human TRPA1, sequence (O75762 whole entry): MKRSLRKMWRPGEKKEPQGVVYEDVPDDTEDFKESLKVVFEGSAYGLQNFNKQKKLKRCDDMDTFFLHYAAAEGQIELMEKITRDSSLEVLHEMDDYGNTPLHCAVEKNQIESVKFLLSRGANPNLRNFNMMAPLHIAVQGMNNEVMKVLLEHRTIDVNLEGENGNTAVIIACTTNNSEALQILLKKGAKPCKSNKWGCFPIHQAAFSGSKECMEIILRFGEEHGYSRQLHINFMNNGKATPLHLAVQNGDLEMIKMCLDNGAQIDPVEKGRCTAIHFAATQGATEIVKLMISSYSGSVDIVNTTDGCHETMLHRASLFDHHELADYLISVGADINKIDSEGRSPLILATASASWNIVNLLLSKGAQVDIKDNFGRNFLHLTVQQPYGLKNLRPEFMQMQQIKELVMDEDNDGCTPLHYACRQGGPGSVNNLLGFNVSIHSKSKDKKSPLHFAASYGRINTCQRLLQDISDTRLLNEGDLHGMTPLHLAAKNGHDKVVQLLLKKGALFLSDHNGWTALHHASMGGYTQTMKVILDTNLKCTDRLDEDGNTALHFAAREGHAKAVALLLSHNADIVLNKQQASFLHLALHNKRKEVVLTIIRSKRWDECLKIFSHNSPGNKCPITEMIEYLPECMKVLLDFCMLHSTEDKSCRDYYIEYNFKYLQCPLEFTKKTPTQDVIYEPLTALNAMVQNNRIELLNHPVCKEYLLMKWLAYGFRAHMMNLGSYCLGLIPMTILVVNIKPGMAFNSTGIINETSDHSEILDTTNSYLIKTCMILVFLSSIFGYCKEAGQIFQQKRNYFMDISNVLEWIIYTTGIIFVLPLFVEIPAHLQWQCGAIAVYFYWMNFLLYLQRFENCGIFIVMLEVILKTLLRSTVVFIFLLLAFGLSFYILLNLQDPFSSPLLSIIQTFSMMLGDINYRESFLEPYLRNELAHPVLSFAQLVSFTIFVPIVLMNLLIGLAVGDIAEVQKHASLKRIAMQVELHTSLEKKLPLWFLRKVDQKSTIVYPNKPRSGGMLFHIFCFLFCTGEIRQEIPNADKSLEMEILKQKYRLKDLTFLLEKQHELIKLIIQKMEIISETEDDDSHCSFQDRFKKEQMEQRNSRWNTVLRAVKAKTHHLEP
IC50s (effective concentration) of compounds on the human and rat TRPA1 channels were determined using a FLIPR Tetra instrument. CHO cells expressing TRPA1 were plated into 384-well plates, incubated overnight at 37C, and loaded with BD calcium indicator dye for 1 hr at 37° C. followed by 15 minutes. at room temperature. The assay buffer was Hank's Balanced Salt Solution (HBSS) containing 20 mM HEPES (pH readjusted to 7.4) along with 0.02% BSA.
Following dye load and plate cool down, compounds were added to the cells using FLIPR Tetra. Plates were then incubated with compounds for 20 minutes at room temperature prior to adding agonist. Following this incubation, ˜EC80 concentration of cinnamaldehyde (75 uM for human TRPA1 and 45 uM for rat TRPA1) was added to active the channels and block of cinnamaldehyde induced calcium influx was measured.
Fixing the Hill coefficient will generally reduce variability of the IC50 determination. The IC50s were individually examined to make sure the MIN and MAX points were set correctly prior to validation of the results.
As for `O=C(NCc1cc(F)cc(-n2ccc(C(F)(F)F)n2)c1)[C@@H]1C[C@@H](F)CN1S(=O)(=O)c1ccc(F)cc1` [Example 87, (2S,4R)-4-fluoro-1-(4-fluorophenyl)sulfonyl-N-[[3-fluoro-5-[3-(trifluoromethyl)pyrazol-1-yl]phenyl]methyl]pyrrolidine-2-carboxamide], the 50% inhibitory concentration (IC50) is 103 nM.
The result for `O=C(NCc1cc(-c2ccc(C(F)F)cc2)c(F)cn1)[C@@H]1C[C@@H](F)CN1S(=O)(=O)c1ccc(F)cc1` [Example 88, (2S,4R)—N-[[4-[4-(difluoromethyl)phenyl]-5-fluoro-2-pyridyl]methyl]-4-fluoro-1-(4-fluorophenyl)sulfonyl-pyrrolidine-2-carboxamide] reads 41 nM; that for `O=C(NCc1cc(F)cc(-c2ccc(C(F)(F)F)nn2)c1)[C@@H]1C[C@@H](F)CN1S(=O)(=O)c1ccc(F)cc1` [Example 89, (2S,4R)-4-fluoro-1-(4-fluorophenyl)sulfonyl-N-[[3-fluoro-5-[6-(trifluoromethyl)pyridazin-3-yl]phenyl]methyl]pyrrolidine-2-carboxamide], 20 nM.
Regarding `O=C(NCc1cc(F)cc(-c2cnc(C(F)F)cn2)c1)[C@@H]1C[C@@H](F)CN1S(=O)(=O)c1ccc(F)cc1` [Example 90, (2S,4R)—N-[[3-[5-(difluoromethyl)pyrazin-2-yl]-5-fluoro-phenyl]methyl]-4-fluoro-1-(4-fluorophenyl)sulfonyl-pyrrolidine-2-carboxamide], the half-inhibitory concentration (IC50) was found to be 62 nM.
Next, `O=C(NCc1cc(F)cc(-c2cnc(C(F)(F)F)nc2)c1)[C@@H]1C[C@@H](F)CN1S(=O)(=O)c1ccc(F)cc1` [Example 91, (2S,4R)-4-fluoro-1-(4-fluorophenyl)sulfonyl-N-[[3-fluoro-5-[2-(trifluoromethyl)pyrimidin-5-yl]phenyl]methyl]pyrrolidine-2-carboxamide]: 14 nM; `O=C(NCc1cc(-c2ccc3c(c2)OC(F)(F)O3)ncn1)[C@@H]1C[C@@H](F)CN1S(=O)(=O)c1ccc(F)cc1` [Example 92, (2S,4R)—N-[[6-(2,2-difluoro-2H-1,3-benzodioxol-5-yl)pyrimidin-4-yl]methyl]-4-fluoro-1-[(4-fluorobenzene)sulfonyl]pyrrolidine-2-carboxamide]: 87 nM; `O=C(NCc1cc(-c2ccc(C(F)(F)F)c(F)c2)ncn1)[C@@H]1[C@@H](F)CCN1S(=O)(=O)c1ccc(F)cc1` [Example 93, (2R,3S)-3-fluoro-N-((6-(3-fluoro-4-(trifluoromethyl)phenyl)pyrimidin-4-yl)methyl)-1-(4-fluorophenylsulfonyl)pyrrolidine-2-carboxamide]: 14 nM.
Next, `O=C(NCc1cc(F)cc(-c2ccc(C(F)F)nc2)c1)[C@@H]1C[C@@H](F)CN1S(=O)(=O)c1ccc(F)cc1` [Example 94, (2S,4R)—N-[[3-[6-(difluoromethyl)-3-pyridyl]-5-fluoro-phenyl]methyl]-4-fluoro-1-(4-fluorophenyl)sulfonyl-pyrrolidine-2-carboxamide]: 29 nM; `O=C(NCc1cc(F)cc(-c2ccc(C(F)(F)F)cn2)c1)[C@@H]1C[C@@H](F)CN1S(=O)(=O)c1ccc(F)cc1` [Example 95, (2S,4R)-4-fluoro-1-(4-fluorophenyl)sulfonyl-N-[[3-fluoro-5-[5-(trifluoromethyl)-2-pyridyl]phenyl]methyl]pyrrolidine-2-carboxamide]: 12 nM; `Cc1cnc(CNC(=O)[C@@H]2C[C@@H](F)CN2S(=O)(=O)c2ccc(F)cc2)cc1-c1ccc(C(F)(F)F)nc1` [Example 96, (2S,4R)-4-fluoro-1-(4-fluorophenyl)sulfonyl-N-[[5-methyl-4-[6-(trifluoromethyl)-3-pyridyl]-2-pyridyl]methyl]pyrrolidine-2-carboxamide]: 162 nM.
Next, `O=C(NCc1ccc(F)c(-c2cnc(C(F)(F)F)cn2)c1)[C@@H]1[C@@H](F)CCN1S(=O)(=O)c1ccc(F)cc1` [Example 97, (2R,3S)-3-fluoro-N-([4-fluoro-3-[5-(trifluoromethyl)pyrazin-2-yl]phenyl]methyl)-1-[(4-fluorobenzene)sulfonyl]pyrrolidine-2-carboxamide]: 24 nM; `O=C(NCc1cc(F)cc(-c2cnc(C(F)(F)F)cn2)c1)[C@@H]1[C@@H](F)CCN1S(=O)(=O)c1ccc(F)cc1` [Example 98, (2R,3S)-3-fluoro-N-([3-fluoro-5-[5-(trifluoromethyl)pyrazin-2-yl]phenyl]methyl)-1-[(4-fluorobenzene)sulfonyl]pyrrolidine-2-carboxamide]: 4 nM; `O=C(NCc1cc(-c2cnc(C(F)(F)F)cn2)c(F)cn1)[C@@H]1C[C@@H](F)CN1S(=O)(=O)c1ccc(F)cc1` [Example 102, (2S,4R)-4-fluoro-N-([5-fluoro-4-[5-(trifluoromethyl)pyrazin-2-yl]pyridin-2-yl]methyl)-1-[(4-fluorobenzene)sulfonyl]pyrrolidine-2-carboxamide]: 66 nM.
With `COc1nn(-c2ccc(C(F)(F)F)nc2)cc1CNC(=O)[C@@H]1[C@@H](F)CCN1S(=O)(=O)c1ccc(F)cc1` [Example 103, (2R,3S)-3-fluoro-1-(4-fluorophenylsulfonyl)-N-((3-methoxy-1-(6-(trifluoromethyl)pyridin-3-yl)-1H-pyrazol-4-yl)methyl)pyrrolidine-2-carboxamide], the half-maximal inhibitory concentration (IC50) came out at 26 nM.
Next, `O=C(NCc1cc(-c2ccc(OC(F)(F)F)c(F)c2)ncn1)[C@@H]1C[C@@H](F)CN1S(=O)(=O)c1ccc(F)cc1` [Example 104, (2S,4R)-4-fluoro-N-([6-[3-fluoro-4-(trifluoromethoxy)phenyl]pyrimidin-4-yl]methyl)-1-[(4-fluorobenzene)sulfonyl]pyrrolidine-2-carboxamide]: 72 nM; `CNc1nc(CNC(=O)[C@@H]2C[C@@H](F)CN2S(=O)(=O)c2ccc(F)cc2)cc(-c2ccc(C(F)(F)F)cc2)n1` [Example 105, (2S,4R)-4-fluoro-1-[(4-fluorobenzene)sulfonyl]-N-[[2-(methylamino)-6-[4-(trifluoromethyl)phenyl]pyrimidin-4-yl]methyl]pyrrolidine-2-carboxamide]: 128 nM; `COc1cnc(CNC(=O)[C@@H]2C[C@@H](F)CN2S(=O)(=O)c2ccc(F)cc2)cc1-c1ccc(C(F)(F)F)nc1` [Example 108, (2S,4R)-4-fluoro-1-[(4-fluorobenzene)sulfonyl]-N-([5-methoxy-4-[6-(trifluoromethyl)pyridin-3-yl]pyridin-2-yl]methyl)pyrrolidine-2-carboxamide]: 256 nM.
Next, `COc1cnc(CNC(=O)[C@]2(C)C[C@@H](F)CN2S(=O)(=O)c2ccc(F)cc2)cc1-c1ccc(C(F)(F)F)nc1` [Example 109, (2S,4R)-4-fluoro-1-(4-fluorophenyl)sulfonyl-N-[[5-methoxy-4-[6-(trifluoromethyl)-3-pyridyl]-2-pyridyl]methyl]-2-methyl-pyrrolidine-2-carboxamide]: 164 nM; `COc1nn(-c2ccc(C(F)(F)F)cc2)cc1CNC(=O)[C@@H]1C[C@@H](C#N)CN1S(=O)(=O)c1ccc(F)cc1` [Example 110, (2S,4R)-4-cyano-1-[(4-fluorobenzene)sulfonyl]-N-([3-methoxy-1-[4-(trifluoromethyl)phenyl]-1H-pyrazol-4-yl]methyl)pyrrolidine-2-carboxamide]: 165 nM; `O=C(NCc1cc(-c2ccc(OC(F)(F)F)cc2)ncn1)[C@@H]1[C@@H](F)CCN1S(=O)(=O)c1ccc(F)cc1` [Example 111, (2R,3S)-3-fluoro-1-(4-fluorophenyl)sulfonyl-N-[[6-[4-(trifluoromethoxy)phenyl]pyrimidin-4-yl]methyl]pyrrolidine-2-carboxamide]: 7 nM.
Next, `N#Cc1cc(CNC(=O)[C@@H]2C[C@@H](F)CN2S(=O)(=O)c2ccc(F)cc2)cc(-c2ccc(C(F)(F)F)nc2)c1` [Example 112, (2S,4R)—N-[[3-cyano-5-[6-(trifluoromethyl)-3-pyridyl]phenyl]methyl]-4-fluoro-1-(4-fluorophenyl)sulfonyl-pyrrolidine-2-carboxamide]: 48 nM.
For the compound `O=C(NCc1cc(-c2ccc(C(F)(F)F)cc2F)ncn1)[C@@H]1C[C@@H](F)CN1S(=O)(=O)c1ccc(F)cc1` [Example 113, (2S,4R)-4-fluoro-N-((6-(2-fluoro-4-(trifluoromethyl)phenyl)pyrimidin-4-yl)methyl)-1-(4-fluorophenylsulfonyl)pyrrolidine-2-carboxamide], the 50% inhibitory concentration (IC50) turned out to be 161 nM.
As to `O=C(NCc1cc(-c2ccc(C(F)(F)F)c(F)c2)ncn1)[C@@H]1C[C@@H](F)CN1S(=O)(=O)c1ccc(F)cc1` [Example 114, (2S,4R)-4-fluoro-N-([6-[3-fluoro-4-(trifluoromethyl)phenyl]pyrimidin-4-yl]methyl)-1-[(4-fluorobenzene)sulfonyl]pyrrolidine-2-carboxamide], the IC50 is 26 nM.
The result for `O=C(NCc1cc(-c2ccc(C(F)(F)F)nc2)c(F)cn1)[C@@H]1[C@@H](F)CCN1S(=O)(=O)c1ccc(F)cc1` [Example 115, (2R,3S)-3-fluoro-1-(4-fluorophenyl)sulfonyl-N-[[5-fluoro-4-[6-(trifluoromethyl)-3-pyridyl]-2-pyridyl]methyl]pyrrolidine-2-carboxamide] reads 13 nM.

The values are drawn from patent US11236046B2, “Substituted heterocyclic sulfonamide compounds useful as TRPA1 modulators” (Genentech, Inc., priority 2013, dated 2022).
